Drawing on publication PMC12040169 (PLOS Biology, 2025), this text covers viability for 57 compounds.

This data set is described as follows: in vitro. The note with it: human, hela cells, % viability.

As usually defined, the viability is a read-out of living cells in per cent, often relative to untreated cells. `CCC(C)(C)c1ccc(S(=O)(=O)N2CCCN(Cc3ccc4cccc(O)c4n3)CC2)cc1` [CBK063051]: the viability at 28.5 h, 10 µM came out at 90.5%.
Same read-out and setting: for `N#Cc1ccc(N2CCN(CCCNC(=O)Nc3ccccc3)CC2)cc1` [CBK267861] the value was 95%; for `NS(=O)(=O)c1ccc(NC(=O)c2ccc3ccccc3c2)cc1` [CBK264338], 112%; for `Cc1ccc2c(c1)oc(=O)n2CCNC(=O)CC1c2ccccc2Oc2ccccc21` [CBK286194], 94.8%.
Turning to `Cc1c(Nc2nc3nonc3nc2Nc2cccc(Cl)c2)c(=O)n(-c2ccccc2)n1C` [CBK263073], the viability at 28.5 h, 10 µM turned out to be 103%.
As for `Cc1sc2nc(C3CC3)n(C3CCNCC3)c(=O)c2c1C` [CBK284228], the viability at 28.5 h, 10 µM amounted to 92.3%.
Same read-out and setting: to `Cc1ccc(-n2c(=O)[nH]c3c(C(N)=O)nc(-c4ccccc4)nc32)cc1C` [CBK287718] belongs 84.7%.
Still for that read-out and setting: to `Cc1ccc(CN(CCCn2ccnc2)Cc2ccccc2O)s1` [CBK283135] belongs 103%; to `N#Cc1c(N)ncnc1-c1ccccc1` [CBK102172], 84.2%.
The same measure, in the same setting: for `CCCCN1CC(C(=O)Nc2nccs2)CC1=O` (stereo not drawn) [CBK288224] the value was 95.3%; for `CC(C)(CO)CNc1nc(-c2cccnc2)cnc1N` [CBK063475], 100%.
Take `CCc1c(C(=O)Nc2ccc(C(F)(F)F)cc2)cnc2ncnn12` [CBK291244]: the viability at 28.5 h, 10 µM was determined as 90.4%.
Take `O=C(O)[C@@H]1CSC(c2ccc3c(c2)OCO3)N1` (stereo partly drawn) [CBK287214]: the viability at 28.5 h, 10 µM stood at 89.8%.
In the case of `COc1ccc(-c2cccc(CN(Cc3ccc4c(c3)OCO4)CC(C)O)c2)cc1` (stereo not drawn) [CBK286472], the viability at 28.5 h, 10 µM turned out to be 107%.
Consider `COCC1=C(C(=O)OC)[C@H](c2ccc(F)c(F)c2)N(C(=O)NCCCN2CCC(c3cccc(NC(C)=O)c3)CC2)C(=O)N1` [CBK051451C], for which the viability at 28.5 h, 10 µM was found to be 93.5%.
Consider `Cc1cc(=O)oc2cc(Sc3cccc(C(F)(F)F)c3C#N)ccc12` [CBK002914], for which the viability at 28.5 h, 10 µM was determined as 93.3%.
As to `Cc1ccc(Oc2ncccc2[N+](=O)[O-])c(Br)c1` [CBK002822], the viability at 28.5 h, 10 µM turned out to be 94.8%.
Still for that read-out and setting: to `c1ccc(Nc2cncc(N3CCNCC3)n2)cc1` [CBK013389] belongs 100%.
For `Cc1nc(-c2ccccc2)sc1C(=O)C1=C(O)C(=O)N(CCN(C)C)C1c1ccccc1` (stereo not drawn) [CBK266415], the viability at 28.5 h, 10 µM amounted to 100%.
Take `O=S(=O)(c1ccc(OC(F)(F)F)cc1)N1CCc2ccccc21` [CBK044279]: the viability at 28.5 h, 10 µM came out at 96.7%.
Still for that read-out and setting: to `COc1ccc(Nc2cc(Cl)ccc2C(=O)N2CCN(c3ncccn3)CC2)cn1` [CBK107334] belongs 89.9%; to `CCOC(=O)c1c(NC(=O)Cn2nc([N+](=O)[O-])c(Cl)c2C)sc2c1CCC(C)C2` (stereo not drawn) [CBK263054], 94.2%.
Same read-out and setting: to `Cc1ccc(C(=O)NCCCNC(=O)c2ccncc2)cc1` [CBK269477] belongs 86%; to `NS(=O)(=O)c1ccc(CCNC(=O)c2cc(Br)cnc2N2CCOCC2)cc1` [CBK076225], 85.1%; to `O=C(Nc1cccc(C(F)(F)F)c1)N[C@H]1[C@H](O)[C@@H](Oc2ccccc2)[C@@H]2OC[C@H]1O2` [CBK288811], 106%.
As to `Cc1cccc(OP(=O)(O)Oc2cccc(C)c2C)c1C` [CBK261316], the viability at 28.5 h, 10 µM (bulk resorufin, single well) worked out at 91.7%.
`NS(=O)(=O)c1ccc(-c2ccc(/C=C3/SC(=S)N(C4CCCCC4)C3=O)o2)cc1` [CBK263127]: the viability at 28.5 h, 10 µM stood at 88%.
For `N#CCCCN1CCC(Oc2nccnc2OCc2ccccc2C(F)(F)F)CC1` [CBK153636], the viability at 28.5 h, 10 µM stood at 102%.
Still for that read-out and setting: for `COc1ccc(OC(=O)N2CCC(n3c(=O)[nH]c4ccccc43)CC2)cc1` [CBK149868] the value was 102%; for `Cc1ccc(S(=O)(=O)N2C(=O)CCC2C(=O)O/N=C(\N)c2cccnc2)cc1` (stereo not drawn) [CBK266864], 111%.
On the same count and under the same terms, for `O=C(O)c1ccc2c(c1)C(=O)N(c1cccnc1)C2=O` [CBK287173] the value was 84.3%; for `Cc1ccc(CNCCn2nnc(-c3ccc(CN4CCC(C)CC4)cc3)n2)cc1` [CBK154882T], 93.3%.
Same read-out and setting: for `Cn1cc(C(=O)NC2CCN(C(=O)c3ccc(C#N)cc3)CC2)cn1` [CBK305683] the value was 94.4%; for `CC(C)[C@@H](CO)Nc1nc(-c2cncnc2)cnc1N` [CBK063735], 99.4%; for `Cn1ccnc1C1(O)CC2CCC(C1)N2C(=O)NCc1ccccc1` (stereo not drawn) [CBK284050], 81.3%.
For the compound `CC(O)Cc1nnc(SCC(=O)c2ccc([N+](=O)[O-])cc2)n1-c1ccccc1` (stereo not drawn) [CBK267389], the viability at 28.5 h, 10 µM amounted to 81.1%.
On the same count and under the same terms, for `O=C(Nc1nccs1)c1ccc2[nH]ccc2c1` [CBK161731] the value was 90.5%; for `CC(C)C(=O)Nc1cccc(NC(=O)COc2ccc(Br)cc2)c1` [CBK265211], 94%.
Turning to `O=C(NCc1ccc(Cl)cc1)N1CCCC(CO)C1` (stereo not drawn) [CBK156053], the viability at 28.5 h, 10 µM is 96.6%.
As for `O=C(C1CCCC1)N1CCC(c2nnc(-c3ccsc3)o2)CC1` [CBK283379], the viability at 28.5 h, 10 µM is 86.5%.
Same read-out and setting: for `O=c1oc2c(CN3CCN(CCO)CC3)c(O)ccc2cc1-c1nc(-c2ccc(Br)cc2)cs1` [CBK264949] the value was 103%; for `COc1ccccc1N(CC(O)CN1C(=O)NC(C)(C)C1=O)S(=O)(=O)c1ccc(C)cc1` (stereo not drawn) [CBK263581], 99.4%; for `COC(=O)CSc1nnc(CSc2cc(C)nc(N3CCOCC3)n2)o1` [CBK007059], 96.1%.
On to `O=C(O)c1cc(NC(=O)C2CCCCC2)cc(C(=O)O)c1` [CBK286972], for which the viability at 28.5 h, 10 µM stood at 103%.
Same read-out and setting: for `CC(NC(=O)c1cnc2n(c1=O)CCS2)c1ccccc1` (stereo not drawn) [CBK287372] the value was 103%; for `O=C(c1ccc2ncccc2c1)N1CCC(c2ccncc2)CC1` [CBK283684], 90.3%.
`Cc1ccc(Cn2nnc3c(O)nc(C4CCN(C(=O)CC(C)(C)C)CC4)nc32)cc1` [CBK293970]: the viability at 28.5 h, 10 µM was found to be 91.2%.
Same read-out and setting: to `Cc1cc2cc(CCNC(=O)C(=O)c3c[nH]c4ccccc34)c(O)nc2cc1C` [CBK287511] belongs 89.5%; to `COCCNc1nc(-c2cccc(Cl)c2Cl)ccc1C(=O)N(C)CCN(C)C` [CBK105922], 98.3%; to `CCC1CCc2c(sc(NC(=O)c3cnccn3)c2C(N)=O)C1` (stereo not drawn) [CBK262649], 105%.
With `CCCCSc1nnc(-c2ccc(Br)cc2)o1` [CBK027012], the viability at 28.5 h, 10 µM was 117%.
With `O=C(Nc1ccccc1-c1nc2ccccc2[nH]1)c1ccc2c(c1)OCCO2` [CBK293924], the viability at 28.5 h, 10 µM worked out at 104%.
In the case of `Cc1cc(C2CCCCCN2Cc2cc(Cl)ccc2O)on1` (stereo not drawn) [CBK281948], the viability at 28.5 h, 10 µM turned out to be 89.2%.
For `CCOc1ccc(N(CC(=O)O)S(=O)(=O)c2ccc(SC)cc2)cc1` [CBK263764], the viability at 28.5 h, 10 µM was determined as 103%.
For `O=C1NC2(CCCCC2)C(=O)N1c1ccc(F)cc1F` [CBK281945], the viability at 28.5 h, 10 µM stood at 111%.
On the same count and under the same terms, to `Cc1ccc(C(=O)O)c(NC(=O)c2ccccc2F)c1` [CBK126744] belongs 98.9%.
For `CC(=O)Nc1cccc(NC(=O)N2CCN(C3CCN(C)CC3)CC2)c1` [CBK155901], the viability at 28.5 h, 10 µM was determined as 85.1%.
